Here are results for three molecules from US20250134861A1, “COMPOSITIONS COMPRISING 5-METHOXY-N,N-DIMETHYLTRYPTAMINE (5-MEO-DMT) FOR USE IN TREATING MENTAL DISORDERS” (GH RESEARCH IRELAND LIMITED, priority 2019, published 2025).

The subject of series [1] is patients with personality trait disturbance or anxiety. The settings on record: LSD as an aid to psychotherapy; cited from earlier work.
Series [2] deals with patients suffering from terminal state of cancer. The settings on record: LSD treatment; cited from earlier work.
The subject of series [3] is patients with anxiety associated with life-threatening diseases. The settings on record: 12 patients; two months follow-up; cited from earlier work.
The subject of series [4] is patients with alcohol dependence. The settings on record: therapy with LSD; cited from earlier work.
The conditions of series [5]: oral; cited from earlier work.
Series [6] relates to patients in a treatment program of alcoholism. The settings on record: LSD together with psychotherapy vs psychotherapy alone; cited from earlier work.
Series [7] is described as follows: Clinical trial of inhaled 5-MeO-DMT in healthy volunteers: 5-MeO-DMT and bufotenine plasma levels. The conditions noted are these: all other samples (1 hour and 3 hours) after inhaled 5-MeO-DMT. Format: in vivo, human. How it is done:
The trial consisted of two parts: Part A, where single doses of 5-MeO-DMT dosage amounts of 2 mg, 6 mg, 12 mg and 18 mg were administered; and Part B, where an initial 5-MeO-DMT dosage amount of 6 mg was administered, and then, unless the participant had already experienced a peak psychedelic experience based on the PPEQ or the supervising physician had decided that further dose increases were inappropriate based on observed side effects, further subsequent dosage amounts of 12 mg and 18 mg were administered with about 3 hours in between each administration. […] Pharmacokinetic analysis of 5-MeO-DMT and bufotenine plasma levels was performed at 1 hour and 3 hours after drug administration in Part A, and at 3 hours after drug administration in Part B.

Another series addresses 5-HT2A receptor (Homo sapiens, UniProt P28223). The conditions noted are these: compared with 5-MeO-DMT; cited from earlier work.
In series [8] the test system is patients with treatment-resistant depression. The conditions noted are these: in vivo; cited from earlier work.

5-HT2A receptor, sequence (P28223 whole entry): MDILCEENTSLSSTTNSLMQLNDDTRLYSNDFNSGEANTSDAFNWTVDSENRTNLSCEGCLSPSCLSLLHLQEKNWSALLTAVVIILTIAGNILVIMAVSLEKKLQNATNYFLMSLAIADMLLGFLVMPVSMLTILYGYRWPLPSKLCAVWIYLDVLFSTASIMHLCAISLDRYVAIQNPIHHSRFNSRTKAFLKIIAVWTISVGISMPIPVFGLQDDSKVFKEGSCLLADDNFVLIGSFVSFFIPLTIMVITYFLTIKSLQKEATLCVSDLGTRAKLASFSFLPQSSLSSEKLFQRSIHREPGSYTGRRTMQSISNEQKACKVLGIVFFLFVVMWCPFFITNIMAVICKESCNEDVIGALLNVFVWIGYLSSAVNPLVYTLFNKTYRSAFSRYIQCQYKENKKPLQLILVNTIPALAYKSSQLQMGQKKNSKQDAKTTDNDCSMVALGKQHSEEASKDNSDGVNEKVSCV

Turning to `CCN(CC)C(=O)[C@@H]1C=C2c3cccc4[nH]cc(c34)C[C@H]2N(C)C1` [LSD, lysergic acid diethylamide], the “Patients with outcome of "much improved" or "improved"” value in series [1] is recorded as “over 90%”. Further, the “Fraction of patients who improved in varying degrees” value in series [2] is given as “about two-thirds”. Moreover, in series [3], the Anxiety measures result was “significant effects”. In addition, the “Patients changed (stop drinking or are much improved)” value in [4] was 50%. Further, the “Duration of acute psychedelic effects” value in series [5] is “several hours”. Besides, the “Rates of abstinence or improvement” value in [6] is on record as “higher rates of abstinence or improvement”.

For `CN(C)CCc1c[nH]c2ccc(O)cc12` [bufotenine], in series [7], the “Bufotenine (5-MeO-DMT metabolite) plasma levels” value is given as “undetectable”. Besides, the “Affinity for the 5-HT2A receptor” value on 5-HT2A receptor is “much higher affinity than 5-MeO-DMT itself”.

`CN(C)CCc1c[nH]c2cccc(OP(=O)(O)O)c12` [psilocybin]: the “Frequently reported side effects” value in series [8] was “anxiety, headache and nausea”.
